Assay results from patent US20260345623A1, “NOVEL […] HETEROCYCLIC CARBALDEHYDE COMPOUND AND PHARMACEUTICAL COMPOSITION, CONTAINING SAME, FOR IRE1alpha INHIBITION” (HANMI PHARM. CO., LTD., priority 2022, published 2026).

target: T1, spliced XBP1 mRNA (target of IRE endonuclease) in MCF-7 cancer cells (Homo sapiens, UniProt O75460); experiment: Spliced XBP1 mRNA Measurement Test (RT-PCR, tunicamycin-induced ER stress, MCF-7 cells); type: cell-based; details: 1 hour pre-treatment with compound, 2 μg/mL tunicamycin 6 or 24 hours, spliced XBP1 corrected by total XBP1, read-out: XBP1 mRNA (IC50)
T1 construct: tunicamycin ER stress; RT-PCR of spliced XBP1 mRNA (RNase domain activity)
Method: A reverse transcription polymerase chain reaction is a test method in which RNA is extracted from cells, reverse transcriptase is used to make cDNA, and relative mRNA expression level is measured through a polymerase chain reaction.
Briefly, MCF-7 cells were seeded in a 12-well plate and cultured in an incubator including 5% CO2 for one day. On the next day, compounds, which were 10-fold serially diluted from 10,000 nM, were pre-treated for 1 hour, and then, treated with 2 μg/mL tunicamycin for 6 or 24 hours to induce endoplasmic reticulum stress, followed by cell lysis to obtain RNA. RNA was subjected to the procedure of RNeasy Kits (Qiagen, 74106), and 5 μg of RNA sample was dissolved in a sample including reverse transcriptase and dNTP, and reverse transcription reaction was performed with a thermal cycler. The amount of mRNA of each of spliced XBP1 and total XBP1 was measured by a polymerase chain reaction through real time PCR by mixing each cDNA sample with a PCR reaction mixture including a primer pair capable of binding specifically to each target and SYBR green dye. The expression level of spliced XBP1 was corrected by the total expression level of XBP1, and the relative expression levels of spliced XBP1 between samples were compared and analyzed.

T1 sequence (O75460 19-977): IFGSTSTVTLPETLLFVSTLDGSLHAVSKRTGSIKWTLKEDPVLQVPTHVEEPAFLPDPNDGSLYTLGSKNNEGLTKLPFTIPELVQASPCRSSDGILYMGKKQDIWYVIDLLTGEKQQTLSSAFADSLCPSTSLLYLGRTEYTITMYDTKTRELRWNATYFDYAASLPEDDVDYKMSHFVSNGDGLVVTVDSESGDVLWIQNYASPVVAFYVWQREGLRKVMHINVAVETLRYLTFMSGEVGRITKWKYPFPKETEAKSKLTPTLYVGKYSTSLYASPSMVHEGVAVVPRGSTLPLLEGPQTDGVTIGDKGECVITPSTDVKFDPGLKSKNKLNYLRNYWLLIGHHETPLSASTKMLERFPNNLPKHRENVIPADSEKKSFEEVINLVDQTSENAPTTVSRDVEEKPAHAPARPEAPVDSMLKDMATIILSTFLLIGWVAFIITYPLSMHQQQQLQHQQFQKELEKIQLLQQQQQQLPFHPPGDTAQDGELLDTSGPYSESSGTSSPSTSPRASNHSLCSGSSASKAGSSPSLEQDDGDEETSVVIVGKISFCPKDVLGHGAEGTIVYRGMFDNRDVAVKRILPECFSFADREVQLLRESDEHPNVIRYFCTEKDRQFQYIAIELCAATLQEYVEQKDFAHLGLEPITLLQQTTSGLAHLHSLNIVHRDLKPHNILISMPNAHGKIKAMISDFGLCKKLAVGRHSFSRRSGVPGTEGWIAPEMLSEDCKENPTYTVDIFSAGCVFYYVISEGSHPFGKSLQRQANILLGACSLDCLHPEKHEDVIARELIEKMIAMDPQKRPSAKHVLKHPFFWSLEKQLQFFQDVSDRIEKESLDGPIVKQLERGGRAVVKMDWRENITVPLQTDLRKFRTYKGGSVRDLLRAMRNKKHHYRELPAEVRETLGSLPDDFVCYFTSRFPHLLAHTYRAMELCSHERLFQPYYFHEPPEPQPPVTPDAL

| Compound | IC50 [nM] |
| --- | --- |
| Cc1c(CC(=O)N2CCC(C)CC2)c(=O)oc2c(C=O)c(O)c3c(c12)CCCO3 [Example 4, 6-hydroxy-1-methyl-2-(2-(4-methylpiperidin-1-yl)-2-oxoethyl)-3-oxo-3,8,9,10-tetrahydropyrano[3,2-f]chromene-5-carbaldehyde] | > 200 |
| COC1CCN(C(=O)Cc2c(C)c3c4c(c(O)c(C=O)c3oc2=O)OCCC4)C1 (stereo not shown) [Example 14, 6-hydroxy-2-(2-(3-methoxypyrrolidin-1-yl)-2-oxoethyl)-1-methyl-3-oxo-3,8,9,10-tetrahydropyrano[3,2-f]chromene-5-carbaldehyde] | 100 to 200 |
| COC1CN(C(=O)Cc2c(C)c3c4c(c(O)c(C=O)c3oc2=O)OCCC4)C1 [Example 15, 6-hydroxy-2-(2-(3-methoxyazetidin-1-yl)-2-oxoethyl)-1-methyl-3-oxo-3,8,9,10-tetrahydropyrano[3,2-f]chromene-5-carbaldehyde] | 100 to 200 |
| Cc1c(CC(=O)N2CCC(F)C2)c(=O)oc2c(C=O)c(O)c3c(c12)CCCO3 (stereo not shown) [Example 16, 2-(2-(3-fluoropyrrolidin-1-yl)-2-oxoethyl)-6-hydroxy-1-methyl-3-oxo-3,8,9,10-tetrahydropyrano[3,2-f]chromene-5-carbaldehyde] | > 200 |
| CCc1c(CC(=O)N2CCCC2)c(=O)oc2c(C=O)c(O)c3c(c12)CCCO3 [Example 18, 1-ethyl-6-hydroxy-3-oxo-2-(2-oxo-2-(pyrrolidin-1-yl)ethyl)-3,8,9,10-tetrahydropyrano[3,2-f]chromene-5-carbaldehyde] | > 200 |
| Cc1c(CC(=O)N2CC(F)C2)c(=O)oc2c(C=O)c(O)c3c(c12)CCCO3 [Example 19, 2-(2-(3-fluoroazetidin-1-yl)-2-oxoethyl)-6-hydroxy-1-methyl-3-oxo-3,8,9,10-tetrahydropyrano[3,2-f]chromene-5-carbaldehyde] | 100 to 200 |
| Cc1c(CC(=O)N2CCC3(CC3)C2)c(=O)oc2c(C=O)c(O)c3c(c12)CCCO3 [Example 20, 6-hydroxy-1-methyl-3-oxo-2-(2-oxo-2-(5-azaspiro[2.4]heptan-5-yl)ethyl)-3,8,9,10-tetrahydropyrano[3,2-f]chromene-5-carbaldehyde] | 100 to 200 |
| Cc1c(CC(=O)N2CCCCC2)c(=O)oc2c(C=O)c(O)c3c(c12)CCCO3 [Example 21, 6-hydroxy-1-methyl-3-oxo-2-(2-oxo-2-(piperidin-1-yl)ethyl)-3,8,9,10-tetrahydropyrano[3,2-f]chromene-5-carbaldehyde] | > 200 |
| Cc1c(CC(N)=O)c(=O)oc2c(C=O)c(O)c3c(c12)CCCO3 [Example 22, 2-(5-formyl-6-hydroxy-1-methyl-3-oxo-3,8,9,10-tetrahydropyrano[3,2-f]chromen-2-yl)acetamide] | > 200 |
| CC(C)c1c(CC(=O)N2CCCC2)c(=O)oc2c(C=O)c(O)c3c(c12)CCCO3 [Example 23, 6-hydroxy-1-isopropyl-3-oxo-2-(2-oxo-2-(pyrrolidin-1-yl)ethyl)-3,8,9,10-tetrahydropyrano[3,2-f]chromene-5-carbaldehyde] | 100 to 200 |
| CC(=O)N1CCN(C(=O)Cc2c(C)c3c4c(c(O)c(C=O)c3oc2=O)OCCC4)CC1 [Example 26, 2-(2-(4-acetylpiperazin-1-yl)-2-oxoethyl)-6-hydroxy-1-methyl-3-oxo-3,8,9,10-tetrahydropyrano[3,2-f]chromene-5-carbaldehyde] | > 200 |
| Cc1c(CC(=O)N2CCSCC2)c(=O)oc2c(C=O)c(O)c3c(c12)CCCO3 [Example 28, 6-hydroxy-1-methyl-3-oxo-2-(2-oxo-2-thiomorpholinoethyl)-3,8,9,10-tetrahydropyrano[3,2-f]chromene-5-carbaldehyde] | 100 to 200 |
| Cc1c(CC(=O)NCCN2CCOCC2)c(=O)oc2c(C=O)c(O)c3c(c12)CCCO3 [Example 29, 2-(5-formyl-6-hydroxy-1-methyl-3-oxo-3,8,9,10-tetrahydropyrano[3,2-f]chromen-2-yl)-N-(2-morpholinoethyl)acetamide] | > 200 |
| Cc1c(CC(=O)N2CCNCC2)c(=O)oc2c(C=O)c(O)c3c(c12)CCCO3 [Example 31, 6-hydroxy-1-methyl-3-oxo-2-(2-oxo-2-(piperazin-1-yl)ethyl)-3,8,9,10-tetrahydropyrano[3,2-f]chromene-5-carbaldehyde] | > 200 |

Second part, the molecule after the results:

| IC50 [nM] | Compound |
| --- | --- |
| < 100 | Cc1c(CC(=O)N2CCOCC2)c(=O)oc2c(C=O)c(O)c3c(c12)CCO3 [Example 1, 4-hydroxy-9-methyl-8-(2-morpholino-2-oxoethyl)-7-oxo-1,7-dihydro-2H-furo[3,2-f]chromene-5-carbaldehyde] |
| 100 to 200 | Cc1c(CC(=O)N2CCOCC2)c(=O)oc2c(C=O)c(O)c3c(c12)OCO3 [Example 2, 4-hydroxy-9-methyl-8-(2-morpholino-2-oxoethyl)-7-oxo-7H-[1,3]dioxolo[4,5-f]chromene-5-carbaldehyde] |
| < 100 | Cc1c(CC(=O)N2CCOCC2)c(=O)oc2c(C=O)c(O)c3c(c12)CCCO3 [Example 3, 6-hydroxy-1-methyl-2-(2-morpholino-2-oxoethyl)-3-oxo-3,8,9,10-tetrahydropyrano[3,2-f]chromene-5-carbaldehyde] |
| < 100 | Cc1c(CC(=O)N2CCCC2)c(=O)oc2c(C=O)c(O)c3c(c12)CCCO3 [Example 5, 6-hydroxy-1-methyl-3-oxo-2-(2-oxo-2-(pyrrolidin-1-yl)ethyl)-3,8,9,10-tetrahydropyrano[3,2-f]chromene-5-carbaldehyde] |
| < 100 | CCNC(=O)Cc1c(C)c2c3c(c(O)c(C=O)c2oc1=O)OCC3 [Example 8, N-ethyl-2-(5-formyl-4-hydroxy-9-methyl-7-oxo-1,7-dihydro-2H-furo[3,2-f]chromen-8-yl)acetamide] |
| < 100 | CCN(CC)C(=O)Cc1c(C)c2c3c(c(O)c(C=O)c2oc1=O)OCC3 [Example 9, N,N-diethyl-2-(5-formyl-4-hydroxy-9-methyl-7-oxo-1,7-dihydro-2H-furo[3,2-f]chromen-8-yl)acetamide] |
| < 100 | Cc1c(CC(=O)N2CCC(F)(F)C2)c(=O)oc2c(C=O)c(O)c3c(c12)CCCO3 [Example 10, 2-(2-(3,3-difluoropyrrolidin-1-yl)-2-oxoethyl)-6-hydroxy-1-methyl-3-oxo-3,8,9,10-tetrahydropyrano[3,2-f]chromene-5-carbaldehyde] |
| < 100 | Cc1c(CC(=O)N2CCC(C)C2)c(=O)oc2c(C=O)c(O)c3c(c12)CCCO3 (stereo not shown) [Example 11, 6-hydroxy-1-methyl-2-(2-(3-methylpyrrolidin-1-yl)-2-oxoethyl)-3-oxo-3,8,9,10-tetrahydropyrano[3,2-f]chromene-5-carbaldehyde] |
| 100 to 200 | Cc1c(CC(=O)N2CCC(C)(C)C2)c(=O)oc2c(C=O)c(O)c3c(c12)CCCO3 [Example 12, 2-(2-(3,3-dimethylpyrrolidin-1-yl)-2-oxoethyl)-6-hydroxy-1-methyl-3-oxo-3,8,9,10-tetrahydropyrano[3,2-f]chromene-5-carbaldehyde] |
| 100 to 200 | Cc1c(CC(=O)N2CCC2)c(=O)oc2c(C=O)c(O)c3c(c12)CCCO3 [Example 13, 2-(2-(azetidin-1-yl)-2-oxoethyl)-6-hydroxy-1-methyl-3-oxo-3,8,9,10-tetrahydropyrano[3,2-f]chromene-5-carbaldehyde] |
| < 100 | CCNC(=O)Cc1c(C)c2c3c(c(O)c(C=O)c2oc1=O)OCCC3 [Example 17, N-ethyl-2-(5-formyl-6-hydroxy-1-methyl-3-oxo-3,8,9,10-tetrahydropyrano[3,2-f]chromen-2-yl)acetamide] |
| < 100 | COCCNC(=O)Cc1c(C)c2c3c(c(O)c(C=O)c2oc1=O)OCCC3 [Example 24, 2-(5-formyl-6-hydroxy-1-methyl-3-oxo-3,8,9,10-tetrahydropyrano[3,2-f]chromen-2-yl)-N-(2-methoxyethyl)acetamide] |
| < 100 | CCN(CC)C(=O)Cc1c(C)c2c3c(c(O)c(C=O)c2oc1=O)OCCC3 [Example 25, N,N-diethyl-2-(5-formyl-6-hydroxy-1-methyl-3-oxo-3,8,9,10-tetrahydropyrano[3,2-f]chromen-2-yl)acetamide] |
| < 100 | Cc1c(CC(=O)N2CC3CC2CO3)c(=O)oc2c(C=O)c(O)c3c(c12)CCCO3 (stereo not shown) [Example 27, 2-(2-(2-oxa-5-azabicyclo[2.2.1]heptan-5-yl)-2-oxoethyl)-6-hydroxy-1-methyl-3-oxo-3,8,9,10-tetrahydropyrano[3,2-f]chromene-5-carbaldehyde] |
| < 100 | Cc1c(CC(=O)N2CCSC2)c(=O)oc2c(C=O)c(O)c3c(c12)CCCO3 [Example 30, 6-hydroxy-1-methyl-3-oxo-2-(2-oxo-2-(thiazolidin-3-yl)ethyl)-3,8,9,10-tetrahydropyrano[3,2-f]chromene-5-carbaldehyde] |

same assay, conditions: read-out: XBP1 mRNA (IC50), 1 hour pre-treatment with compound, 2 μg/mL tunicamycin 6 or 24 hours, spliced XBP1 corrected by total XBP1

| Compound | IC50 [nM] |
| --- | --- |
| Cc1c(CC(=O)N2CCN(C)CC2)c(=O)oc2c(C=O)c(O)c3c(c12)CCCO3 [Example 6, 6-hydroxy-1-methyl-2-(2-(4-methylpiperazin-1-yl)-2-oxoethyl)-3-oxo-3,8,9,10-tetrahydropyrano[3,2-f]chromene-5-carbaldehyde] | < 100 |
| Cc1c(CC(=O)N2CCN(C(C)C)CC2)c(=O)oc2c(C=O)c(O)c3c(c12)CCCO3 [Example 7, 6-hydroxy-2-(2-(4-isopropylpiperazin-1-yl)-2-oxoethyl)-1-methyl-3-oxo-3,8,9,10-tetrahydropyrano[3,2-f]chromene-5-carbaldehyde] | 100 to 200 |
